Data taken from patent publication US7098210B2, “2h-pyridazine-3-one derivatives, pharmaceutical compositions containing the same and a process for the preparation of the active ingredient” (Egis Gyógyszergyár Rt., priority 2001, dated 2006).

Assays:
[1] = system: male NMRI mice; experiment: Inhibition of apomorphine induced stereotypy on mouse; format: in vivo; settings: apomorphine hydrochloride subcutaneously 60 min after treatment
Protocol: (§1) 1.2 Inhibition of Apomorphine Stereotypy and Climbing on Mouse
(§2) Male NMRI mice of 20 to 24 g body weight were used in the experiments. The animals were treated with the carrier and the test substance (20 ml of volume/kg body weight), respectively, then 30 minutes later, for habituation, they were placed into wire screen cages of 12 cm×12 cm×12 cm size which could be covered by plexyglass plates. After 30 minutes, […] of apomorphine hydrochloride were administered to the mice in a volume of 10 ml/kg, subcutaneously. The measurement of the stereotyped behaviour was begun at once after the treatment with apomorphine and continued for 25 minutes. The measurement was performed by means of a scale having five grades: • 0 point: normal behaviour corresponding to that of the control animals. • 1 point: permanent exploration activity, smelling or moving the head sideways from time to time. • 2 points: intensive continuous head movement or smelling, periodical exploration activity. • 3 points: licking, biting or gnawing from time to time, alternating with intensive smelling or head movement, locomotor activity lasting for a very short time. • 4 points: continuous intensive licking and/or gnawing in the same place without any locomotor or exploration activity.
Evaluation of stereotypy: in case of each animal, the highest point value obtained during the observation was taken into consideration and recorded, respectively. From the maximum point value, median was calculated for each group which was related to the median of the control group to calculate the effect in percentage.
(§3) In this case again chlorpromazine and clozapine were used as the reference substance.

[2] = system: male NMRI mice; experiment: Inhibition of apomorphine induced climbing on mouse; format: in vivo; settings: 1 h, po., apomorphine hydrochloride subcutaneously 60 min after treatment
Protocol: as §1, §2
The posture when the mouse climbed up on the vertical wall with at least three legs was considered as climbing. The evaluation was performed in the last ten minutes of the observation on the basis yes/no (+/−).
The frequency was calculated in each group, then the effect was determined in percentage considering the result obtained for the control group as 100%.
as §3

[3] = system: male Wistar rats; experiment: Inhibition of conditioned avoiding response (CAR), shuttle-box; format: in vivo, rat; settings: compound given 1 hour before the series of experiment, 50% inhibition dose
Protocol: 1.1 Inhibition of Conditioned Avoiding Response (CAR)
The antipsychotic (neuroleptic) effect was measured by determining the inhibition of the learned conditioned avoiding reflex. At the beginning of teaching, male Wistar rats of 120 to 150 g body weight were used for the experiments. The experimental apparatus was the so called shuttle-box consisting of two rooms of 24 cm×24.5 cm×23 cm size separated from each other by a wall. The two rooms were connected by a gate of 6 cm×9 cm size. During the test, the task of the animals was to pass from one room to the other through the gate in case of a suitable warning stimulus, thus, avoiding the punishing (unconditioned) stimulus. The warning (conditioned) stimulus appeared in the room where the animal was staying. The conditioned stimulus (CS) was a gleaming (1 Hz) white light lasting for 15 seconds. The unconditioned stimulus (US) was a randomized electric shock to the sole with an intensity of 0.6 mA which appeared in the last 5 seconds of the conditioned stimulus. Passing from one room of the shuttle-box to the other during the conditioned stimulus was considered as avoiding response, while passing during the unconditioned stimulus was considered as escaping response. Both responses stopped the actual stimulus, and the trial was finished. The intertrial interval (ITI) was 15 seconds. 80 trials were performed on a day. The learning performance was measured as the ratio of the number of the successful avoiding responses to the total number of trials in percentage. The effect of the neuroleptics was determined on the animals showing a performance of at least 75% after the stabilization of the conditioned reflex. The test compounds were administered to the rats once weekly, 1 hour before the series of experiment. When evaluating the effect of the neuroleptics in each group, the performance of the animals on the day before was used as control. […] These values are given in Table I. Chlorpromazine [2-chloro-10-(3dimethylaminopropyl)phenothiazine] and clozapine [8-chloro-11-(4methyl-1-piperazinyl)-5H-dibenzo[b,e][1,4]diazepine] were used as the reference substance.

[4] = system: mice; experiment: Inhibition of hypermotility induced by phencyclidine (PCP); format: in vivo; settings: Mus musculus, 1 h, sc., 3 mg/kg phencyclidine intraperitoneally 60 minutes after treatment, read-out: ID50 in mg/kg sc.
[5] = system: isolated right ventricular papillary muscle of the rabbit; experiment: Cardiotoxic effect: effective refractory period (ERP) in vitro; settings: for % change of ERP (1 μM): papillary muscle paced at 1 Hz, vs. baseline
Protocol: The cardiotoxic effect was determined in isolated right ventricular papillary muscle of the rabbit in vitro.
The modified method of Hackett et al., 1990 was used (Hacket, A. M., Mc Donald S. J., P., Schweingruber, F. and Gartwaite, S. M.: Simple in vitro method to characterize antiarrhythmic agents J. Pharmacol. Methods 23, 107–116, 1990).
The effective refractory period (ERP) was measured in isolated right ventricular papillary muscle of the rabbit in vitro.
The contractions of papillary muscle preparations obtained from New Zealand rabbits weighing 2.5–3.2 kg were evaluated. The contractions (isometrically paced at 1 Hz) were recorded by 4-channel Hugo Sachs apparatus. The effects of the test compounds or references were measured in 1 μM concentration.

[6] = system: male Wistar rats; experiment: Cataleptogenous effect (method of Morpurgo); format: in vivo, rat; settings: for Ratio Cat/CAR (MED/ID50): catalepsy MED divided by CAR ID50; for MED in mg/kg po.: rats, minimum effective dosis inducing catalepsy
Source text: The cataleptogenous effect was studied according to the method of Morpurgo [Morpurgo, C., Arch. Int. Pharmacodyn., 137, 84 ([…])]. Male Wistar rats of 220 to 240 g body weight have been used for the examinations. The fore-feet of the rats were placed on a gum stopper, one by one, and it was observed how the animal tolerated the unusual posture. The normal (non-cataleptic) animal removes the foot from the stopper during the measuring time of 10 seconds. If the animal keeps the foot on the stopper during the measuring time, this stiff state accompanied by myotonia is evaluated as catalepsy.

| Compound | melting point [°C] | Inhibition of stereotypy, ID50 in mg/kg po. [1] [mg/kg] | ED50 [2] [mg/kg] | Conditioned reflex, ID50 in mg/kg [3] | ED50 [4] [mg/kg] | % change of ERP (1 μM) [5] [%] | Ratio Cat/CAR (MED/ID50) [6] | MED in mg/kg po. [6] [mg/kg] | cardiotoxic effect (significant prolongation of ERP) ([5]; 1 μM concentration) |
| --- | --- | --- | --- | --- | --- | --- | --- | --- | --- |
| Cn1ncc(Cl)c(NCCN2CCC(c3noc4cc(F)ccc34)CC2)c1=O [Example 1, 4-{2-[4-(6-fluoro-1,2-benzisoxazole-3-yl)piperidine-1-yl]ethyl-amino}-5-chloro-2-methyl-2H-pyridazine-3-one] | 108 to 109 | 0.4 | 0.3 | 0.7 mg/kg | 0.4 | – | – | – | – |
| Cn1ncc(Cl)c(NCCCN2CCC(c3noc4cc(F)ccc34)CC2)c1=O [Example 2, 4-{3-[4-(6-fluoro-1,2-benzisoxazole-3-yl)piperidine-1-yl]propyl-amino}-5-chloro-2-methyl-2H-pyridazine-3-one] | 117 to 119 | 2.0 | 0.6 | 5.8 mg/kg | – | – | – | – | – |
| O=c1[nH]ncc(Cl)c1NCCCN1CCC(c2noc3cc(F)ccc23)CC1 [Example 3, 4-{3-[4-(6-fluoro-1,2-benzisoxazole-3-yl)piperidine-1-yl]propyl-amino}-5-chloro-2H-pyridazine-3-one] | 198 to 200 | 1.2 | 0.8 | – | – | – | – | – | – |
| Cn1ncc(NCCN2CCC(c3noc4cc(F)ccc34)CC2)c(Cl)c1=O [Example 4, 4-chloro-5-{2-[4-(6-fluoro-1,2-benzisoxazole-3-yl)piperidine-1-yl]ethyl-amino}-2-methyl-2H-pyridazine-3-one] | – | 0.2 | 0.06 | 0.3 to 0.5 mg/kg | 0.07 | 11.1 ± 1.7 | about 6 | 3 | – |
| Cn1ncc(NCCCN2CCC(c3noc4cc(F)ccc34)CC2)c(Cl)c1=O [Example 5, 4-chloro-5-{3-[4-(6-fluoro-1,2-benzisoxazole-3-yl)piperidine-1-yl]propyl-amino}-2-methyl-2H-pyridazine-3-one] | 200 to 202 | 2.0 | 0.6 | ≦3.0 mg/kg | 0.46 | 5.3 ± 0.4 | >3 | 10 | – |
| Cn1ncc(NCCN2CCC(c3noc4cc(F)ccc34)CC2)cc1=O [Example 6, 5-{2-[4-(6-fluoro-1,2-benzisoxazole-3-yl)piperidine-1-yl]ethyl-amino}-2-methyl-2H-pyridazine-3-one] | 200 to 202 | – | – | – | 0.9 | 6.1 ± 1.9 | – | >30 | – |
| Cn1ncc(NCCCN2CCC(c3noc4cc(F)ccc34)CC2)cc1=O [Example 7, 5-{3-[4-(6-fluoro-1,2-benzisoxazole-3-yl)piperidine-1-yl]propyl-amino}-2-methyl-2H-pyridazine-3-one] | 163 to 165 | – | – | – | 0.4 | – | – | ~30 | – |
| O=c1[nH]ncc(NCCN2CCC(c3noc4cc(F)ccc34)CC2)c1Cl [Example 8, 5-{2-[4-(6-fluoro-1,2-benzisoxazole-3-yl)piperidine-1-yl]ethyl-amino}-4-chloro-2H-pyridazine-3-one] | 229 to 231 | – | – | – | 0.2 | 1.5 ± 1.5 | – | ~10 | – |
| O=c1cc(NCCN2CCC(c3noc4cc(F)ccc34)CC2)cn[nH]1 [Example 9, 5-{2-[4-(6-fluoro-1,2-benzisoxazole-3-yl)piperidine-1-yl]ethyl-amino}-2H-pyridazine-3-one] | 97 to 99 | – | – | – | 1.4 | 0.4 ± 1.1 | – | >10 | – |
| COc1cc(C(C)=O)ccc1OCCCN1CCC(c2noc3cc(F)ccc23)CC1 [Iloperidone, reference compound] | – | – | – | – | – | 31.9 ± 7.8 | – | – | considerable and significant cardiotoxic potential |
| CN(C)CCCN1c2ccccc2Sc2ccc(Cl)cc21 [chlorpromazine, 2-chloro-10-(3dimethylaminopropyl)phenothiazine, reference compound] | – | 6.8 | 6.1 | 13.2 mg/kg | – | – | – | – | – |
| CN1CCN(C2=Nc3cc(Cl)ccc3Nc3ccccc32)CC1 [clozapine, 8-chloro-11-(4methyl-1-piperazinyl)-5H-dibenzo[b,e][1,4]diazepine, reference compound] | – | 35.4 | 11.8 | 21.3 mg/kg | 2.9 | – | – | – | – |
| O=C(CCCN1CCC(O)(c2ccc(Cl)cc2)CC1)c1ccc(F)cc1 [haloperidol, 4-(4-chlorophenyl-4-hydroxy-1-piperidinyl)-1-(4-fluorophenyl)-1-butanone, reference compound] | – | – | – | – | 1.2 | – | – | 1 | – |
